Patent publication US20050176727A1, “Oximes and hydrazones that are useful in treating sexual dysfunction” (priority 2004, published 2005)
Structures can show the parent of a compound that is named as a salt.

Columns and labels:
[1] = test system: penile erection in Wistar rats; experiment: Rat penile erection model; assay type: in vivo; conditions: reference compound
Description: Wistar rats were used as a primary animal model to study penile erection in vivo. All experiments were carried out between 9:00 AM and 3:00 PM in a diffusely illuminated testing room with a red light. Animals (n=8-30) were weighed and allowed to adapt to the testing room for 60 minutes before the beginning of experiments. Rats were placed individually in a transparent cage (20×30×30 cm) after drug injection.

Row | melting point | SMILES | most efficacious dose [1]
1 | 127 to 128 °C | N#CCON=C(CCN1CCN(c2ccccn2)CC1)c1ccccc1 (as salt: maleate) [Example 29, ({[1-phenyl-3-(4-pyridin-2-ylpiperazin-1-yl)propylidene]amino}oxy)acetonitrile] | –
2 | 154 to 155 °C | CCCCON=C(CCN1CCN(c2ccccn2)CC1)c1ccccc1 (as salt: maleate) [Example 30, 1-phenyl-3-(4-pyridin-2-ylpiperazin-1-yl)propan-1-one O-butyloxime] | –
3 | 156 to 157 °C | CC(C)O/N=C(\CCN1CCN(c2ccccn2)CC1)c1ccccc1 (as salt: maleate) [Example 31, (1E)-1-phenyl-3-(4-pyridin-2-ylpiperazin-1-yl)propan-1-one O-isopropyloxime] | –
4 | 152 to 153 °C | CON=C(c1ccc(Cl)cc1)C(C)CN1CCN(c2ccccn2)CC1 (stereo not shown) (as salt: maleate) [Example 39, 1-(4-chlorophenyl)-2-methyl-3-(4-pyridin-2-ylpiperazin-1-yl)propan-1-one O-methyloxime] | –
5 | 159 to 160 °C | ON=C(CCN1CCN(c2ccccn2)CC1)c1ccc(F)cc1 [Example 21, 1-(4-fluorophenyl)-3-(4-pyridin-2-ylpiperazin-1-yl)propan-1-one oxime] | –
6 | 188 to 190 °C | O/N=C(\CCN1CCN(c2ccccn2)CC1)c1ccc(Cl)cc1 [Example 22, (1E)-1-(4-chlorophenyl)-3-(4-pyridin-2-ylpiperazin-1-yl)propan-1-one oxime] | –
7 | – | CN1CCc2cccc3c2[C@H]1Cc1ccc(O)c(O)c1-3 [apomorphine, (6aR) 5,6,6a,7-tetrahydro-6-methyl-4H-dibenzo[de,g]quinoline-10,11-diol] | 0.1 µmol/kg
